Data reported in PubChem BioAssay AID1259407 (Chemical Carcinogenesis Research Information System (CCRIS), 2018).
Activity calls are given as the source filed them. No rule for the calls is given here.

Tested on: CCRIS mutagenicity, Ames/micronucleus/aberration tests
Assay: CCRIS mutagenicity studies
[1] = Test System: AMES SALMONELLA TYPHIMURIUM, Strain/Indicator: TA98, Metabolic Activation: NONE, Method: STANDARD PLATE
[2] = Test System: AMES SALMONELLA TYPHIMURIUM, Strain/Indicator: TA98, Metabolic Activation: S-9, Method: STANDARD PLATE
[3] = Test System: AMES SALMONELLA TYPHIMURIUM, Strain/Indicator: TA100, Metabolic Activation: NONE, Method: STANDARD PLATE
[4] = Test System: AMES SALMONELLA TYPHIMURIUM, Strain/Indicator: TA98, Metabolic Activation: RAT, LIVER, S-9, AROCLOR 1254, Method: STANDARD PLATE
[5] = Test System: AMES SALMONELLA TYPHIMURIUM, Strain/Indicator: TA100, Metabolic Activation: RAT, LIVER, S-9, AROCLOR 1254, Method: STANDARD PLATE

COc1ccc(/C=C/c2ccc(N)cc2)cc1
mutagenic call (Test System: AMES SALMONELLA TYPHIMURIUM, Strain/Indicator: TA98(1,8-DNP6), Metabolic Activation: NONE, Method: STANDARD PLATE): inactive; negative
mutagenic call (Test System: AMES SALMONELLA TYPHIMURIUM, Strain/Indicator: TA98(1,8-DNP6), Metabolic Activation: S-9, Method: STANDARD PLATE): inactive; negative
mutagenic call [1]: inactive; negative
mutagenic call [2]: active; positive
mutagenic call [3]: inactive; negative
mutagenic call (Test System: AMES SALMONELLA TYPHIMURIUM, Strain/Indicator: TA100, Metabolic Activation: S-9, Method: STANDARD PLATE): active; positive

CCCCN(N=O)C(=O)NC
mutagenic call (Test System: E. COLI, Strain/Indicator: WP2 UVRA, Metabolic Activation: NONE, Method: PREINCUBATION): active; positive
mutagenic call (Test System: E. COLI, Strain/Indicator: WP2 UVRA, Metabolic Activation: RAT, LIVER, S-9, PHENOBARBITAL AND 5,6-BENZOFLAVONE, Method: PREINCUBATION): active; positive

Cc1ccc(CCl)cc1
mutagenic call [3]: inactive; negative

Cc1ccc(-c2nc3ccccc3o2)cc1
mutagenic call [1]: inactive; negative
mutagenic call [2]: inactive; negative

O=C(O)/C(Cl)=C(\CO)C(Cl)Cl
mutagenic call (Test System: AMES SALMONELLA TYPHIMURIUM, Strain/Indicator: TA97, Metabolic Activation: NONE, Method: STANDARD PLATE): active; positive
mutagenic call (Test System: AMES SALMONELLA TYPHIMURIUM, Strain/Indicator: TA97, Metabolic Activation: RAT, LIVER, S-9, PHENOBARBITAL, Method: STANDARD PLATE): inactive; negative
mutagenic call [1]: inactive; negative
mutagenic call (Test System: AMES SALMONELLA TYPHIMURIUM, Strain/Indicator: TA98, Metabolic Activation: RAT, LIVER, S-9, PHENOBARBITAL, Method: STANDARD PLATE): inactive; negative
mutagenic call [3]: active; positive
mutagenic call (Test System: AMES SALMONELLA TYPHIMURIUM, Strain/Indicator: TA100, Metabolic Activation: RAT, LIVER, S-9, PHENOBARBITAL, Method: STANDARD PLATE): inactive; negative

CC(=O)Nc1ccc2c(c1OC(C)=O)Cc1ccccc1-2
mutagenic call [4]: inactive; negative

CNc1ccnc(-c2cc(N(C)C)ccn2)c1.CNc1ccnc(-c2cc(N(C)C)ccn2)c1.F[P-](F)(F)(F)(F)F.F[P-](F)(F)(F)(F)F.F[P-](F)(F)(F)(F)F.F[P-](F)(F)(F)(F)F.[NH3+]Cc1ccnc(-c2cc(C[NH3+])ccn2)c1.[Os+2]
mutagenic call [1]: inactive; negative
mutagenic call [4]: inactive; negative
mutagenic call [3]: inactive; negative
mutagenic call [5]: inactive; negative

CC[C@@]1(O)C[C@H](O[C@H]2C[C@H](N(C)C)[C@H](O[C@H]3C[C@H](O)[C@H](O)[C@H](C)O3)C(C)O2)c2c(cc3c(c2O)C(=O)c2c(O)ccc(O)c2C3=O)[C@H]1C(=O)OC (some centres undefined)
mutagenic call (Test System: AMES SALMONELLA TYPHIMURIUM, Strain/Indicator: TA102, Metabolic Activation: NONE, Method: STANDARD PLATE): active; positive
mutagenic call (Test System: AMES SALMONELLA TYPHIMURIUM, Strain/Indicator: TA104, Metabolic Activation: NONE, Method: STANDARD PLATE): active; positive

CC(C)=CC1C(C(=O)O)C1(C)C (centres undefined)
mutagenic call [1]: inactive; negative
mutagenic call [4]: inactive; negative
mutagenic call [3]: inactive; negative
mutagenic call [5]: inactive; negative
mutagenic call (Test System: AMES SALMONELLA TYPHIMURIUM, Strain/Indicator: TA1535, Metabolic Activation: NONE, Method: STANDARD PLATE): inactive; negative
mutagenic call (Test System: AMES SALMONELLA TYPHIMURIUM, Strain/Indicator: TA1535, Metabolic Activation: RAT, LIVER, S-9, AROCLOR 1254, Method: STANDARD PLATE): inactive; negative
mutagenic call (Test System: AMES SALMONELLA TYPHIMURIUM, Strain/Indicator: TA1537, Metabolic Activation: NONE, Method: STANDARD PLATE): inactive; negative
mutagenic call (Test System: AMES SALMONELLA TYPHIMURIUM, Strain/Indicator: TA1537, Metabolic Activation: RAT, LIVER, S-9, AROCLOR 1254, Method: STANDARD PLATE): inactive; negative
mutagenic call (Test System: E. COLI, Strain/Indicator: WP2, Metabolic Activation: NONE, Method: STANDARD PLATE): inactive; negative
mutagenic call (Test System: E. COLI, Strain/Indicator: WP2, Metabolic Activation: RAT, LIVER, S-9, AROCLOR 1254, Method: STANDARD PLATE): inactive; negative
